Experimental data from publication PMC5318888, “SAMHD1 enhances nucleoside-analogue efficacy against HIV-1 in myeloid cells” (Scientific Reports, 2017).

Target: T1, SAMHD1 (Homo sapiens, UniProt Q9Y3Z3)
T1 construct: The final concentrations were 100 nM SAMHD1(115–626), 10 nM Ppx1; strep-tag; made in house
Assay: SAMHD1 triphosphohydrolase continuous coupled-enzyme assay (MDCC-PBP phosphate biosensor, Ppx1)
Format: biochemical
Conditions: for inhibition of SAMHD1 GTP-activated TTP hydrolysis / activation of SAMHD1 TTP hydrolysis: 0.3 mM TTP; for inhibition of SAMHD1 GTP-activated TTP hydrolysis: 0.1 mM GTP; for inhibition of SAMHD1 GTP-activated TTP hydrolysis / hydrolysis by SAMHD1 (substrate): 0.3 mM analogue triphosphate; for activation of SAMHD1 TTP hydrolysis: 0.1 mM analogue triphosphate as activator; for hydrolysis by SAMHD1 (substrate): without and with 0.1 mM GTP
From the text: SAMHD1 hydrolysis, activation and inhibition by nucleotide analogues was quantified using a continuous coupled assay employing the fluorescent phosphate biosensor MDCC-PBP to measure phosphate release from combined SAMHD1 triphosphohydrolase and S. cerevisiae Ppx1 exopolyphosphatase activity, described previously. SAMHD1 and Ppx1 were expressed as strep-tagged fusion proteins and purified as described previously. Didanosine triphosphate (ddI-TP) and dideoxy ATP (ddATP) were from Trilink Biotechnologies, Stavudine triphosphate (d4T-TP) was from Jena biosciences and Chemcyte. Abacavir triphosphate and Carbovir triphosphate were chemically synthesised in house from abacavir and carbovir as described above. Experiments were performed in 20 μL reaction volumes in 384-well low-protein-binding microplates (Corning, USA). In typical experiments, solutions containing SAMHD1, Ppx1, MDCC-PBP and activator (GTP, ddI-TP or d4T-TP), or activator plus inhibitor, were incubated for 5 min in assay buffer (20 mM Tris pH 8.0, 150 mM NaCl, 5 mM MgCl2 and 2 mM TCEP) at 25 °C before the reaction was initiated by the addition of substrate (TTP, ddI-TP or d4T-TP). The final concentrations were 100 nM SAMHD1(115–626), 10 nM Ppx1, 2.5 μM BSA, 40 μM MDCC-PBP (80 μM in ABC-TP and CBV-TP assays). Activator, substrate and inhibitor were added at concentrations described below. The fluorescence intensity increase resulting from the phosphate-product binding to MDCC-PBP was recorded at 430 nm excitation and 465 nm emission over 10–30 min in a Clariostar multiwell plate reader (BMG). Steady-state rates were obtained from the fluorescence time courses by fitting a linear function with maximal slope using the Mars software (BMG). Apparent dissociation constant of ddI-TP binding (KS), catalytic constant (kcat), maximal rate (kmax) and the ddI-TP concentration at half maximal activation (Ka) were determined by nonlinear least squares fitting using a Hill-function in the software package Grafit 7.0.3 (Erithacus software, UK). All measurements were performed at least in triplicate and data are represented as mean ± SEM.

[1] = 1 mM TTP, varying ddI-TP, lower estimate
[2] = Hill equation fit, 0.2 mM GTP, mean ± SEM

T1 sequence (Q9Y3Z3 115-626): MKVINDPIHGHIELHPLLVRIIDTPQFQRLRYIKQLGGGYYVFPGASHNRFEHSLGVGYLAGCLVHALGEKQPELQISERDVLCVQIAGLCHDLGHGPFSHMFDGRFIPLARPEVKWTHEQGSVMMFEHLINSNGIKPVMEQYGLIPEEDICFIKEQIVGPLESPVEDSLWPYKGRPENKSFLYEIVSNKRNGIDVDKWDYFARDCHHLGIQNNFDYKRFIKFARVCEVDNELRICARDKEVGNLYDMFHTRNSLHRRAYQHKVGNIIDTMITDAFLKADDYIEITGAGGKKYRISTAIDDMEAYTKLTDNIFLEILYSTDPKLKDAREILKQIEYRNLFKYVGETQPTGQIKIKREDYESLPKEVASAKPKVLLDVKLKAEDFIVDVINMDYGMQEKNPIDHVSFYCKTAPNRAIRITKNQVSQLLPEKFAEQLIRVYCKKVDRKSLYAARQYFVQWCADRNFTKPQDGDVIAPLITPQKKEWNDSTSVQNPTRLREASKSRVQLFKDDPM

Nc1nc(NC2CC2)c2ncn([C@H]3C=C[C@@H](COP(=O)(O)OP(=O)(O)OP(=O)(O)O)C3)c2n1 [ABC-TP, abacavir-5′-triphosphate]
inhibition of SAMHD1 GTP-activated TTP hydrolysis: neither ABC-TP nor CBV-TP displayed any activation or inhibition of SAMHD1
activation of SAMHD1 TTP hydrolysis: neither ABC-TP nor CBV-TP displayed any activation or inhibition of SAMHD1
hydrolysis by SAMHD1 (substrate): not hydrolysed by SAMHD1

Nc1nc(=O)c2ncn([C@H]3C=C[C@@H](COP(=O)(O)OP(=O)(O)OP(=O)(O)O)C3)c2[nH]1 [CBV-TP, Carbovir 5′-triphosphate]
inhibition of SAMHD1 GTP-activated TTP hydrolysis: neither ABC-TP nor CBV-TP displayed any activation or inhibition of SAMHD1
activation of SAMHD1 TTP hydrolysis: neither ABC-TP nor CBV-TP displayed any activation or inhibition of SAMHD1
hydrolysis by SAMHD1 (substrate): not hydrolysed by SAMHD1

Cc1cn([C@H]2C=C[C@@H](COP(=O)(O)OP(=O)(O)OP(=O)(O)O)O2)c(=O)[nH]c1=O [d4T-TP, stavudine triphosphate]
inhibition of SAMHD1 GTP-activated TTP hydrolysis: not a SAMHD1 inhibitor or activator
activation of SAMHD1 TTP hydrolysis: not a SAMHD1 inhibitor or activator
hydrolysis by SAMHD1 (substrate): little or no hydrolytic activity

Nc1ncnc2c1ncn2[C@H]1CC[C@@H](CO[P@@](=O)(O)O[P@](=O)(O)OP(=O)(O)O)O1 [ddATP, dideoxy ATP]
inhibition of SAMHD1 GTP-activated TTP hydrolysis: no measurable activation or inhibition
activation of SAMHD1 TTP hydrolysis: no measurable activation or inhibition
hydrolysis by SAMHD1 (substrate): no hydrolysis by SAMHD1

O=c1[nH]cnc2c1ncn2[C@H]1CC[C@@H](COP(=O)(O)OP(=O)(O)OP(=O)(O)O)O1 [ddI-TP, didanosine triphosphate]
inhibition of SAMHD1 GTP-activated TTP hydrolysis: no significant inhibitory effects
activation of SAMHD1 TTP hydrolysis: activates SAMHD1 triphosphohydrolase activity, but to a much lesser degree than the natural activator, GTP
hydrolysis by SAMHD1 (substrate): hydrolysed by SAMHD1 even in the absence of GTP
increase of ddI-TP hydrolysis in the presence of activating GTP (0.3 mM ddI-TP, 0.1 mM GTP vs no GTP): three-fold
Ka, ddI-TP concentration at half maximal activation of TTP hydrolysis [1]: > 300 µM
maximal rate kmax of TTP hydrolysis activated by ddI-TP [1]: > 0.1 s⁻¹
apparent binding constant KS of ddI-TP hydrolysis (Hill equation fit, 0.2 mM GTP (saturating activator), mean ± SEM): 226 ± 12 µM
Hill coefficient n of ddI-TP hydrolysis [2]: 1.7 ± 0.1
catalytic constant kcat of ddI-TP hydrolysis [2]: 0.24 ± 0.04 s⁻¹
ddI-TP hydrolysis rate relative to TTP hydrolysis rate (fold slower) (in the presence of 0.1 mM GTP): around six-fold
